Laboratory results taken from patent publication US7541188B2, “Skin substitutes and uses thereof” (Stratatech Corporation, priority 2001, dated 2009).
Like-named read-outs stand apart in the source and are kept apart here.

Key:
[1] = tested on: NIKS organotypic cultures; experiment: IL-1α secretion by NIKS organotypic cultures (Quantikine IL-1α ELISA of media); format: cell-based, human; settings: 0.1% SDS applied topically, 24 hr, 37° C.
Experimental: Solutions of SDS (0.1%, 0.2%, and 0.5%) were topically applied to air-exposed NIKS organotypic cultures and incubated for 24 hr at 37° C. After 24 hr, the media underneath the cultures was assayed for IL-1α protein using a Quantikine IL-1α ELISA kit (R&D Systems, Minneapolis, Minn.) and cultures were incubated with MTS reagent (Promega Corp., Madison, Wis.) to determine cell viability. Media from untreated cultures contained 25 pg/ml IL-1α, whereas the concentration of IL-1α in cultures treated with 0.1%, 0.2% or 0.5% SDS was 290, 375 and 275 pg/ml respectively.

skin equivalents = settings: irritant-treated skin equivalents; cited from earlier work
[2] = tested on: tracheobronchial epithelial cells; settings: cited from earlier work
[3] = tested on: in vitro skin equivalent cultures; settings: substance added to in vitro cultures; cited from earlier work
[4] = tested on: in vitro skin equivalent cultures; settings: substance added to in vitro cultures, cited from earlier work

| Compound | expression and secretion of the pro-inflammatory cytokines IL-1α and IL-8 (skin equivalents) | Barrier Function [4] | also measured |
| --- | --- | --- | --- |
| CCCCCCCCCCCCOS(=O)(=O)[O-].[Na+] [SDS] | induce expression and secretion | – | concentration of IL-1α in media [1]: 290 pg/mL |
| C=C1/C(=C\C=C2/CCC[C@]3(C)[C@@H]([C@H](C)/C=C/[C@@H](O)C4CC4)CC[C@@H]23)C[C@@H](O)C[C@@H]1O [calcipotriol] | induce expression and secretion | – | – |
| CC1=C(/C=C/C(C)=C/C=C/C(C)=C/C(=O)O)C(C)(C)CCC1 [trans-retinoic acid] | induce expression and secretion | – | induction of reporter gene containing IL-8 promoter sequences between −1472 and +19 [2]: induced |
| EGF: epidermal growth factor (NSDSECPLSHDGYCLHDGVCMYIEALDKYACNCVVGYIGERCQYRDLKWWELR; Epidermal growth factor; UniProt P01133 971-1023, looked up) | – | – | Lipid Composition [3]: High |
| Estrogen | – | Accelerates | – |
| Vitamin D | – | Improved/No | Barrier Function ([4]; listed as vitamin D): improvements in some studies |
